Results on eleven compounds are retold here after ChEMBL document CHEMBL6092150, “Exploration of isatin-based inhibitors of SARS-CoV-2 Nsp15 endoribonuclease” (Eur J Med Chem, 2024).

Molecules are shown by their SMILES. Activity calls are given as the source filed them. The rule behind the calls is not given here.

The subject of one data set is Vero C1008. Kind of data set: Cytotoxicity against african green monkey Vero E6 cells at 100 uM incubated for 72 hrs by MTT cell viability assay. In kind it is toxicity, cell-based. The note with it: chlorocebus sabaeus, vero c1008, 72 h.
The target in data set [1] is Replicase polyprotein 1ab (Severe acute respiratory syndrome coronavirus 2) (UniProt P0DTD1). Kind of data set: Inhibition of SARS-CoV-2 recombinant GST-tagged nsp15 endonuclease activity using 5'-6-FAM-AArUAA-lowa Black FQ-3' as substrate assessed as cleavage of substrate at 100 uM measured every 2 min for 1 hrs by FRET-based Nsp15 EndoU assay relative to control.
For another data set, the system named is MRC5. Kind of data set: Cytotoxicity against human MRC5 cells at 100 uM incubated for 72 hrs by MTT cell viability assay. In kind it is toxicity, cell-based. As to conditions: mrc5, 72 h. On the technique in general: Tetrazolium assays rely on reduction of a dye to a coloured formazan, in cell work by metabolically active cells.
Data set [2] has as its target Replicase polyprotein 1ab (Severe acute respiratory syndrome coronavirus 2) (UniProt P0DTD1). Briefly: (§1) Inhibition of SARS-CoV-2 recombinant GST-tagged nsp15 endonuclease activity using 5'-6-FAM-AArUAA-lowa Black FQ-3' as substrate assessed as cleavage of substrate measured every 2 min for 1 hrs by FRET-based Nsp15 EndoU assay.
The target in data set [3] is Replicase polyprotein 1ab (Severe acute respiratory syndrome coronavirus 2, UniProt P0DTD1). Described as §1.
For data set [4], the target named is Replicase polyprotein 1ab (Severe acute respiratory syndrome coronavirus 2) (UniProt P0DTD1). Briefly: Effect on SARS-CoV-2 recombinant Nsp15 oligomerization state at 0.1 to 1 mM by Commassie-Native gel electrophoresis. As to conditions: dose 0.1-1 mM.
A short description of data set [5]: Cytotoxicity against human A549 cells by MTS cell viability analysis. In kind it is toxicity, cell-based.

`O=C1Nc2ccc([N+](=O)[O-])cc2C1=O` [5-NITROISATIN]: the Activity result in the data set with Vero C1008 and with MRC5 was “Non-toxic” each time. Further, the inhibition in data set [1] stood at 40.7%.

On to `N#CC(C#N)=C1C(=O)Nc2ccc(I)cc21`, for which the values for the inhibition in data set [1] and in data set [2] were 32.6% and “Dose-dependent-effect”, respectively. Moreover, in data set [3], the IC50 stood at 151 µM.

Take `O=C1Nc2c(Br)cc(Br)cc2C1=O`: in data set [1], the inhibition stood at 58.4%.

For the compound `O=C1Nc2ccc(F)cc2C1=O`, the inhibition in data set [1] was 13.6%.

Consider `O=C1Nc2ccc(Br)cc2C1=O`, for which, in data set [1], the inhibition was 32.7%.

On to `N#CC(C#N)=C1C(=O)Nc2ccc([N+](=O)[O-])cc21`, for which the outcome in data set [4] was inactive. Also, the Activity entry in the data set on Vero C1008 and in the data set with MRC5 was “Non-toxic” throughout. Also, the inhibition in data set [1] is 61.5%; in data set [2] it was “Dose-dependent-effect”. The CC50 in data set [5] is 189 µM. In data set [3], the IC50 was 43.5 µM.

As to `N#C[C@@]1(c2ccc3c(N)ncnn23)O[C@H](CO)[C@@H](O)[C@H]1O` [GS-441524], the CC50 in data set [5] is above 40 µM.

Regarding `O=C1Nc2ccc(I)cc2C1=O`, the inhibition in data set [1] came out at 26.2%.

Regarding `N#CC(C#N)=C1C(=O)Nc2c(Br)cc(Br)cc21`, the result in data set [4] was inactive. Besides, the Activity entry in the data set on Vero C1008 and with MRC5 was “Non-toxic” throughout. The inhibition in data set [1] is 68.1%; in data set [2], “Dose-dependent-effect”. The compound further registered a half-maximal cytotoxic concentration (CC50) in data set [5] of 134 µM. The IC50 in data set [3] turned out to be 53.5 µM.

Consider `N#CC(C#N)=C1C(=O)Nc2ccc(Br)cc21`, for which the inhibition is 55.9% in data set [1] and “Dose-dependent-effect” in data set [2]. Further, the concentration for half-maximal inhibition (IC50) in data set [3] stood at 82.9 µM.

On to `N#CC(C#N)=C1C(=O)Nc2ccc(F)cc21`, for which the inhibition in data set [1] is 30.2%; in data set [2], “Dose-dependent-effect”. Besides, in data set [3], the 50% inhibitory concentration (IC50) turned out to be 236 µM.

In general, inhibition refers to the change of the read-out against control, counted positive when it falls. Broadly, the IC50 is the concentration at which inhibition is half-maximal. In general, CC50 refers to the concentration that lowers cell viability or growth by half.
